The assay addresses T1, RORγt (Homo sapiens, UniProt P51449).
T1 construct: Prepare 4×RORgt-LBD in 1× buffer
T1 sequence (P51449 269-508 limits assumed): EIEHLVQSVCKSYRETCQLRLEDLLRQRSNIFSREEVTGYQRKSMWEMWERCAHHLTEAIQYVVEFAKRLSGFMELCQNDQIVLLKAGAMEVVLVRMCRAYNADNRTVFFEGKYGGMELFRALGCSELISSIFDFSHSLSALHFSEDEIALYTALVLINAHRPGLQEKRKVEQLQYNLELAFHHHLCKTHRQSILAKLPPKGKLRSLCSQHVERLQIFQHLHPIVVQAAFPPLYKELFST
As to the kind of experiment: Fluorescence resonance energy transfer (FRET) assay of inhibitory activity on RORγt. The format is biochemical. As to conditions: RORgt-LBD GST with SRC peptide. The protocol:
Fluorescence resonance energy transfer (FRET) experiment was performed to assay the inhibitory activity of the compound of the present invention on RORγt.
1) Preparation of DMSO stock solutions of the compounds: All compounds were dissolved in DMSO to prepare 10 mM stock solutions.
2) Compound storage: After the compound was dissolved in DMSO, the solution can be stored in a desiccator at room temperature for three months. For long-term storage, the solution should be put in a −20° C. refrigerator.
3) Preparation of working solution: • a) Positive control compound AZD0284: Starting from 500 µM, the solution was diluted serially by 3-folds with DMSO to obtain a 10-concentration gradient, each concentration with 3 replicate wells. 2 wells were pipetted. The gradiently diluted compound was diluted in a reaction buffer to obtain a 4× working solution (starting from 40 μM, diluted gradiently by 3-folds) of the positive control compound. • b) Compounds to be tested: Starting from 500 μM, the solution was diluted serially by 3-folds with DMSO to obtain a 10-concentration gradient, each concentration with 3 replicate wells. 2 wells were pipetted. The gradiently diluted compound was diluted in a reaction buffer to obtain a 4× working solution ([…], diluted gradiently by 3-folds) of the compounds to be tested. • c) Prepare a 4× negative control (8% DMSO). • d) Centrifuge the plate at 1000 rpm for 1 min.
1) Prepare 4× serially diluted compounds in 1× buffer.
2) Add 5 μl of the 4× serially diluted compound (prepared in step 1) to a 384 assay plate (784075, Greiner).
3) Prepare 4×RORgt-LBD in 1× buffer.
4) Add 5 μl of the 4×RORgt-LBD (prepared in step 3) to the 384 assay plate (prepared in step 2).
5) Incubate the assay plate for 15 min at room temperature, protected from light.
6) Prepare a 2× mixture of SRC, anti-GST Eu and streptavidin-d2 in 1× […].
7) Add 10 μl of the 2× mixture (prepared in step 6) to the 384 assay plate (prepared in step 4).
8) Centrifuge the 384 assay plates at 1000 g for 1 min.
9) Incubate for 3 h at room temperature, protected from light.
10) Read the plate at wavelengths of 665 nm and 615 nm on an Envision 2104 plate reader.
Relative ratio (RR): Calculate the relative ratio (response value at 665 nm/response value at 615 nm-response value in blank background) of each well.
Inhibition rate %=[1−(fluorescence detection value of the compound−fluorescence detection average of the positive compound)/(fluorescence detection average of the negative control−fluorescence detection average of the positive compound)]×100
Calculate the IC50 and dose-response curve of the compound: The IC50 and dose-response curve of the compound were obtained via Graphpad 8.0 by calculating the inhibition rate of the compound and the log value of the compound concentration.

The values that follow come from patent US20240317686A1, “RORyT MODULATOR, AND PREPARATION METHOD THEREFOR AND APPLICATION THEREOF” (SHANGHAI PHARMACEUTICALS HOLDING CO., LTD., priority 2020, published 2024).

A word on the IC50: it is the concentration at which inhibition is half-maximal. A high value points to lower potency.

Turning to `CCS(=O)(=O)c1ccc(CC(=O)Nc2ccc(C(=O)C(C)(C)c3cccc(Cl)c3)nc2)cc1` [Compound I-1, N-[6-[2-(3-chlorophenyl)-2-methyl-propionyl]-3-pyridyl]-2-(4-ethylsulfonylphenyl)acetamide], the IC50 is 1 to 10 nM.
For `CCS(=O)(=O)c1ccc(CC(=O)Nc2ccc(C(=O)C(C)(C)c3ccc(Cl)cc3)cn2)cc1` [Compound I-2, N-[5-[2-(4-chlorophenyl)-2-methyl-propionyl]-2-pyridyl]-2-(4-ethylsulfonylphenyl)acetamide] the value was 10 to 50 nM.
Consider `CCS(=O)(=O)c1ccc(CC(=O)Nc2ccc(C(=O)C(C)(C)c3ccc(Cl)cc3)nc2)cc1` [Compound I-3, N-[6-[2-(4-chlorophenyl)-2-methylpropionyl]-3-pyridyl]-2-(4-ethylsulfonylphenyl)acetamide], for which the IC50 is 10 to 50 nM.
In the case of `CCS(=O)(=O)c1ccc(CC(=O)Nc2ccc(C(=O)C(C)(C)c3ccc(F)cc3)nc2)cc1` [Compound I-4], the IC50 fell in the range of 1 to 10 nM.
For `CCS(=O)(=O)c1ccc(CC(=O)Nc2ccc(C(=O)C(C)(C)c3ccc(Br)cc3)nc2)cc1` [Compound I-5] the value was 1 to 10 nM.
For `CCS(=O)(=O)c1ccc(CC(=O)Nc2ccc(C(=O)C(C)(C)c3ccc(F)c(Cl)c3)nc2)cc1` [Compound I-6, N-(6-(2-(3-chloro-4-fluorophenyl)-2-methylpropionyl)pyridin-3-yl)-2-(4-(ethylsulfonyl)phenyl) acetamide] the value was 1 to 10 nM; for `CCS(=O)(=O)c1ccc(CC(=O)Nc2ccc(C(=O)C(C)(C)c3cccnc3)nc2)cc1` [Compound I-7, 2-(4-(ethylsulfonyl)phenyl)-N-(6-(2-methyl-2-(pyridin-3-yl)propanoyl)pyridin-3-yl)acetamide], 10 to 50 nM; for `CCS(=O)(=O)c1ccc(CC(=O)Nc2ccc(C(=O)C3(c4ccc(Cl)cc4)CCC3)nc2)cc1` [Compound I-8, N-(6-(1-(4-chlorophenyl)cyclobutane-1-carbonyl)pyridin-3-yl)-2-(4-(ethylsulfonyl)phenyl)acetamide], 1 to 10 nM.
For `CCS(=O)(=O)c1ccc(CC(=O)Nc2ccc(C(=O)C(C)(C)c3cccc(C#N)c3)nc2)cc1` [Compound I-9, N-[6-[2-(3-cyanophenyl)-2-methylpropionyl]-3-pyridyl]-2-(4-ethylsulfonylphenyl)acetamide] the value was 1 to 10 nM; for `CCS(=O)(=O)c1ccc(CC(=O)Nc2ccc(C(=O)C(C)(C)c3cccc(Br)c3)nc2)cc1` [Compound I-10, N-[6-[2-(3-bromophenyl)-2-methylpropionyl]-3-pyridyl]-2-(4-ethylsulfonylphenyl)acetamide], 1 to 10 nM.
Compound `CCS(=O)(=O)c1ccc(CC(=O)Nc2ccc(C(=O)C3(c4ccc(Cl)cc4)CC3)nc2)cc1` [Compound I-11, N-(6-(1-(4-chlorophenyl)cyclopropane-1-carbonyl)pyridin-3-yl)-2-(4-(ethylsulfonyl)phenyl)acetamide] showed an IC50 of 1 to 10 nM.
For `CCS(=O)(=O)c1ccc(CC(=O)Nc2ccc(C(=O)C(C)(C)c3ccc(F)cc3F)nc2)cc1` [Compound I-12, N-(6-(2-(2,4-difluorophenyl)-2-methylpropionyl)pyridin-3-yl)-2-(4-(ethylsulfonyl)phenyl)acetamide] the value was 1 to 10 nM; for `CCS(=O)(=O)c1ccc(CC(=O)Nc2ccc(C(=O)C(C)(C)c3ccc(C(F)(F)F)cc3)nc2)cc1` [Compound I-13], 1 to 10 nM.
For `CCS(=O)(=O)c1ccc(CC(=O)Nc2ccc(C(=O)C(C)c3ccc(Cl)cc3)nc2)cc1` (stereo not drawn) [Compound I-14, N-(6-(2-(4-chlorophenyl)propionyl)pyridin-3-yl)-2-(4-(ethylsulfonyl)phenyl)acetamide] the value was 1 to 10 nM.
`CCS(=O)(=O)c1ccc(CC(=O)Nc2ccc(C(=O)C(C)(C)c3ccc(F)c(Br)c3)nc2)cc1` [Compound I-15] had an IC50 of 1 to 10 nM.
`CCS(=O)(=O)c1ccc(CC(=O)Nc2ccc(C(=O)C(C)(C)c3ccncc3)nc2)cc1` [Compound I-19] displayed an IC50 of 1 to 10 nM.
The compound `CCS(=O)(=O)c1ccc(CC(=O)Nc2ccc(C(=O)C(C)(C)c3ccccn3)nc2)cc1` [Compound I-20, 2-(4-(ethylsulfonyl)phenyl)-N-(6-(2-methyl-2-(pyridin-2-yl)propanoyl)pyridin-3-yl)acetamide] came in with an IC50 of 10 to 50 nM.
For `CCS(=O)(=O)c1ccc(CC(=O)Nc2ccc(C(=O)C(C)(C)c3cnn(C)c3)nc2)cc1` [Compound I-23, 2-(4-(ethylsulfonyl)phenyl)-N-(6-(2-methyl-2-(1-methyl-1H-pyrazol-4-yl)propionyl)pyridin-3-yl)acetamide] the value was 10 to 50 nM.
For `CCS(=O)(=O)c1ccc(CC(=O)Nc2ccc(C(=O)C(C)(C)c3ccc(Cl)cc3)nc2)nc1` [Compound I-24, N-(6-(2-(4-chlorophenyl)-2-methylpropionyl)pyridin-3-yl)-2-(5-(ethylsulfonyl)pyridin-2-yl)acetamide] the value was 10 to 50 nM; for `CCS(=O)(=O)c1ccc(CC(=O)Nc2ccc(C(=O)C(C)(C)c3ccc(C(F)(F)F)cn3)nc2)cc1` [Compound I-25, 2-(4-(ethylsulfonyl)phenyl)-N-(6-(2-methyl-2-(5-(trifluoromethyl)pyridin-2-yl)propionyl)pyridin-3-yl)acetamide], 1 to 10 nM; for `CCS(=O)(=O)c1ccc(CC(=O)Nc2ccc(C(=O)C(C)(C)c3ccc(F)c(Cl)c3)nc2)nc1` [Compound I-26, N-(6-(2-(3-chloro-4-fluorophenyl)-2-methylpropionyl)pyridin-3-yl)-2-(5-(ethylsulfonyl)pyridin-2-yl)acetamide], 1 to 10 nM.
In turn, `CCS(=O)(=O)c1ccc(CC(=O)Nc2ccc(C(=O)C(C)(C)c3cc(Cl)cc(C#N)c3)nc2)cc1` [Compound I-27, N-(6-(2-(3-chloro-5-cyanophenyl)-2-methylpropionyl)pyridin-3-yl)-2-(4-(ethylsulfonyl)phenyl) acetamide] registered an IC50 of 1 to 10 nM.
For `CCS(=O)(=O)c1ccc(CC(=O)Nc2ccc(C(=O)C(C)(C)c3ccc(F)cn3)nc2)cc1` [Compound I-28], the IC50 is 10 to 50 nM.
Consider `CCS(=O)(=O)c1ccc(CC(=O)Nc2ccc(C(=O)C(C)(C)c3ccnc(C)c3)nc2)cc1` [Compound I-29], for which the IC50 is 1 to 10 nM.
For `CCS(=O)(=O)c1ccc(CC(=O)Nc2ccc(C(=O)C(C)(C)c3ccc(C)cn3)nc2)cc1` [Compound I-30] the value was 1 to 10 nM.
`CCS(=O)(=O)c1ccc(CC(=O)Nc2ccc(C(=O)C(C)(C)c3ccc(Cl)cn3)nc2)cc1` [Compound I-31] showed an IC50 of 1 to 10 nM.
For `CCS(=O)(=O)c1ccc(CC(=O)Nc2ccc(C(=O)C(C)(C)c3cncc(Cl)c3)nc2)cc1` [Compound I-32, N-(6-(2-(5-chloropyridin-3-yl)-2-methylpropionyl)pyridin-3-yl)-2-(4-(ethylsulfonyl)phenyl)acetamide] the value was 10 to 50 nM; for `CCS(=O)(=O)c1ccc(CC(=O)Nc2ccc(C(=O)C(C)(C)c3cnn(CC(F)(F)F)c3)nc2)cc1` [Compound I-33, 2-(4-(ethylsulfonyl)phenyl)-N-(6-(2-methyl-2-(1-(2,2,2-trifluoroethyl)-1H-pyrazol-4-yl)propionyl)pyridin-3-yl)acetamide], 10 to 50 nM.
For `CCS(=O)(=O)c1ccc(CC(=O)Nc2ccc(C(=O)C(C)(C)c3cnn(CC(F)F)c3)nc2)cc1` [Compound I-34] the value was 100 to 1000 nM; for `CCS(=O)(=O)c1ccc(CC(=O)Nc2ccc(C(=O)C3(c4ccc(Cl)cc4)CC(F)(F)C3)nc2)cc1` [Compound I-35], 1 to 10 nM.
For `CCS(=O)(=O)c1ccc(CC(=O)Nc2ccc(C(=O)C(C)(C)c3nccs3)nc2)cc1` [Compound I-36] the value was 10 to 50 nM; for `CCS(=O)(=O)c1ccc(CC(=O)Nc2ccc(C(=O)C(C)(C)n3cc(C)cn3)nc2)cc1` [Compound I-37], 100 to 1000 nM.
The compound `CCS(=O)(=O)c1ccc(CC(=O)Nc2ccc(C(=O)C(C)(C)n3ccc(C)n3)nc2)cc1` [Compound I-38] registered an IC50 greater than 1000 nM.
